# Assay results: paper PMC8226474, “Design, Syntheses, and Bioevaluations of Some Novel N^2-Acryloylbenzohydrazides as Chemostimulants and Cytotoxic Agents” (Medicines, 2021)
# Like-named read-outs stand apart in the source and are kept apart here.
# What was measured:
# HCT 116 cells [1] = assay: Cytotoxicity assay, HCT 116 colon cancer cells; assay type: cell-based, human; settings: for SI (selectivity index): IC50 CRL 1790 / IC50 HCT 116
# Description: (§1) Evaluation of the cytotoxic properties of the compounds presented in Table 1, Table 2, Table 3 and Table 4 was undertaken using the procedure outlined in [7]. In brief, the HCT 116 cells were obtained from the ATCC and cultured in McCoy’s 5A medium. The CRL 1790 cells were obtained from the ATCC and cultured in Minimum Essential Medium. The MCF-7 and MDA-MBA-231 cells were obtained from the Saskatchewan Cancer Agency and cultured in DMEM. In each assay the culture medium was supplemented with 10% fetal bovine serum and 1% penicillin–streptomycin antibiotics. The time of the bioassays was 48 h, unless indicated otherwise. All determinations were carried out in triplicate on three different occasions.
# MCF-7 cells = assay: Cytotoxicity assay, MCF-7 breast cancer cells; assay type: cell-based, human; settings: Homo sapiens, MCF7, 48 h, read-out: percentage inhibition of MCF-7 cells
# Description: as §1
# MDA-MB-231 cells = assay: Cytotoxicity assay, MDA-MB-231 breast cancer cells; assay type: cell-based, human; settings: Homo sapiens, MDA-MB-231, 48 h, read-out: percentage inhibition of MDA-MB-231 cells
# Description: as §1
# CRL 1790 cells = assay: Cytotoxicity assay, non-malignant CRL 1790 colon cells; assay type: cell-based; settings: Homo sapiens, 48 h
# Description: as §1
# HCT 116 cells [2] = assay: Mitochondrial membrane potential of HCT 116 cells (TMRE dye); assay type: cell-based, human; settings: IC50 concentration towards HCT 116, 48 h, Figure 4
# Description: The method of Crowley et al. was employed in order to ascertain the effects of 1m, 7a, e, g, and 5-FU on the mitochondrial membrane potential of HCT 116 cells.
# The decision was made to experiment with another method for determining the effect of compounds on the MMP. In this assay, the dye used was tetramethylrhodamine ethyl ester (TMRE), which can be found in the mitochondria of healthy cells. However, in apoptotic cells, the dye is released into the cytosol, leading to a decrease in the fluorescence signal.
# HCT 116 cells [3] = assay: ROS levels in HCT 116 cells (DCF-DA dye); assay type: cell-based, human; settings: IC50 concentration towards HCT 116; DCF-DA fluorescence; Figure 5
# Method: In this assay, the dye 2,7-dichlorofluorescein diacetate (DCF-DA) was used, and the effects of 1m, 7a, e, g, and 5-FU on the ROS levels in HCT 116 cells were determined by the method of [11].
# The evaluation of 1m, […], e, and g for their capacity to increase the concentration of ROS in HCT 116 cells used 2′,7′-dichlorofluorescein diacetate. This dye is deacetylated in cells, and is converted into a non-fluorescent compound that reacts with ROS to form 2′,7′-dichlorofluorescein, which is fluorescent.
# [4] = Homo sapiens, HCT-116, Table 4, 48 h, read-out: IC50 HCT 116
# [5] = ratio of IC50 values towards HCT 116 cells
# [6] = Table 4, read-out: IC50 CRL 1790
SMILES,"inhibition at 10 µM (HCT 116 cells [1]; Homo sapiens, HCT-116, 10 µM, 48 h, read-out: percentage inhibition of HCT 116 cells) [%]","inhibition at 100 µM (HCT 116 cells [1]; Homo sapiens, HCT-116, 100 µM, 48 h, read-out: percentage inhibition of HCT 116 cells) [%]","IC50 (HCT 116 cells [1]; Homo sapiens, HCT-116, Table 2, 48 h, read-out: Neoplastic Cells IC50, HCT 116) [nM]",SI (selectivity index) (HCT 116 cells [1]; Table 2),inhibition at 10 µM (MCF-7 cells; 10 µM) [%],inhibition at 100 µM (MCF-7 cells; 100 µM) [%],inhibition at 10 µM (MDA-MB-231 cells; 10 µM) [%],inhibition at 100 µM (MDA-MB-231 cells; 100 µM) [%],"IC50 (CRL 1790 cells; Table 2, read-out: Non-Malignant CRL 1790 Cells IC50) [µM]",melting point [°C],IC50 (HCT 116 cells [1]; [4]) [nM],times more potent than 1a (HCT 116 cells [1]; [5]) [times],IC50 (CRL 1790 cells; [6]) [µM],effect on mitochondrial membrane potential of HCT 116 cells (HCT 116 cells [2]),effect on ROS levels in HCT 116 cells (HCT 116 cells [3]),SI (selectivity index) (HCT 116 cells [1]; Table 4),times more potent than 5-FU (HCT 116 cells [1]; [5]) [times],times the antineoplastic activity of melphalan (HCT 116 cells [1]; [5]) [times]
"CCC(=O)NNC(=O)c1ccccc1 [6a, N^2-Propionylbenzohydrazide]",-10.5 ± 2.93,9.35 ± 2.53,> 100000,~1.00,-19.6 ± 3.66,-5.69 ± 2.54,-25.3 ± 1.82,-11.6 ± 2.52,> 100,106 to 107,–,–,–,–,–,–,–,–
"O=C(CCN1CC(=Cc2ccccc2)C(=O)C(=Cc2ccccc2)C1)NNC(=O)c1ccccc1 [7a, 3,5-Bis(benzylidene)-1-[3-(phenylcarbonylaminoamino)-3-oxo-1-propyl]-4-piperidone]",–,–,–,–,–,–,–,–,–,154 to 156,1380 ± 250,26.7,12.3 ± 1.09,only 7e reduces the electrochemical potential of the mitochondria,increase the fluorescence intensity,–,–,–
"COc1ccc(C(=O)NNC(=O)CCN2CC(=Cc3ccc([N+](=O)[O-])cc3)C(=O)C(=Cc3ccc([N+](=O)[O-])cc3)C2)cc1OC [7e, 3,5-Bis(4-nitrobenzylidene)-1-[3-(3,4-dimethoxyphenylcarbonylaminoamino)-3-oxo-1-propyl]-4-piperidone]",–,–,–,–,–,–,–,–,–,153 to 158,280 ± 10,–,4.57 ± 0.53,reduces the electrochemical potential of the mitochondria,increase the fluorescence intensity,16.3,14.7,119
"COc1ccc(C(=O)NNC(=O)CCN2CC(=Cc3ccc(C)cc3)C(=O)C(=Cc3ccc(C)cc3)C2)cc1OC [7g, 3,5-Bis(4-methylbenzylidene)-1-[3-(3,4-dimethoxyphenylcarbonylaminoamino)-3-oxo-1-propyl]-4-piperidone]",–,–,–,–,–,–,–,–,–,190 to 192,1940 ± 180,–,9.24 ± 0.52,only 7e reduces the electrochemical potential of the mitochondria,increase the fluorescence intensity,4.76,–,–
